Test system: PTEN-null endometrial glands (latent endometrial precancers)
Experiment: Latent precancers (PTEN-null glands by immunohistochemistry) in paired endometrial biopsies before and after progestin therapy
Format: in vivo, women
Conditions: pre versus post therapy
Procedure: Women in Northern Norway (Tromso region) with successive endometrial biopsies taken under different hormonal conditions form the three main experimental groups of this study. Clinical aspects of these patients have been published elsewhere (Vereide, et al., Gynecol Oncol 91:526-33 (2003)), but will be summarized here. […] Just under half (10 of 22 reported in results) received low dose hormonal replacement therapy as follows: norestrin 1 mg/estradiol 2mg daily (6 patients), estriol 1-2mg daily (3 patients), tibolone 2.5 mg daily (1 patient), no therapy (12 patients). All patient materials were compiled from existing pathologic tissues generated as part of routine patient care (“discarded materials”), except for the P-IUD group, which was consented in advance. […]
Paraffin sections of endometrial biopsy and curetting specimens were rehydrated, and underwent antigen retrieval by microwave before overnight (4° C.) incubation with 1:300 murine monoclonal anti-PTEN antibody 6h2.1 (Cascade Biosciences, Winchester, Mass.) as previously described (Mutter, et al, Cancer Res 61:43114 (2001)). Slides were washed, and incubated with appropriate secondary biotinylated immunoglobulin (Vectastain ABC kit, Vector Laboratories, Inc., Burlingame, Calif.) and signal detected by sequential addition of avidin peroxidase and 3,3′-diaminobenzidine. […]

CC(=O)[C@@]1(O)CC[C@H]2[C@@H]3C[C@H](C)C4=CC(=O)CC[C@]4(C)[C@H]3CC[C@@]21C [p-cycle, medroxyprogesterone]
Change of latent precancers after therapy (in words): non-significant changes

From patent US7858332B2, “Chemoprevention of endometrial cancer” (The Brigham and Women's Hospital, Inc., priority 2006, dated 2010)
